Measured values reported in patent publication US8557864B2, “Agent having neurotrophic factor-like activity” (Nagoya Industrial Science Research Institute, priority 2007, dated 2013).

Columns and labels:
Assay type in all cases: in vivo
MAP kinase = test: Phosphorylated MAP kinase amount in cortex of frontal lobe and hippocampus of stressed mice; conditions: 24 hours after 3 weeks of stress with 20, 100, 500 μg/kg, at least one administration example
Description: After 24 hours from completion of stress for 3 weeks in the same method as described in Example 2, mice administered with the compound 8 in doses of 0, 20, 100 and 500 μg/kg respectively at the same time as stress and non-stressed mice administered with only a phosphoric acid buffer containing 0.1% DMSO were sacrificed and the cortexes of frontal lobes and hippocampi were excised respectively, and thereto were added RIPA buffers in 19 times of an amount of each wet weight.
Then, sonication was performed by an ultrasonic grinder until tissues cannot be seen, centrifuged at 12000 rpm for 15 minutes, and the supernatant was recovered to form a tissue protein extraction solution. The protein concentration of the extraction solution was measured using a BCA Protein Assay Kit (TAKARA BIO INC.), each of extraction solutions containing 3 μg for a MAP kinase and 5 μg for a phosphorylated MAP kinase was added with a ⅓ amount of a sample buffer for electrophoresis at 4 times of a concentration, and a 1/10 amount of 2-mercaptoethanol and thermally treated at 95° C. for 5 minutes and subjected to electrophoresis with a 10% SDS polyacrylic amide gel. […]

[1] = test system: mice under chronic mild stress; test: Burying the glass-marbles test after completion of stress; conditions: 20 μg/kg and 100 μg/kg; 1 week- and 2 week-administration groups after completion of stress
Description: Tips were bedded so as to have a height of 5 cm in a box with […] and 25 glass marbles (1.6 cm in diameter) were placed thereon at 5 cm-interval and behaviors of mice were observed. The number of buried glass marbles was found by counting each glass marble that was buried in ⅔ or more from visual observation from just above after 15 minutes as one count. The test was performed for 3 hours. Since a mouse under stress having an anxiety symptom (condition) takes such a behavior as burying glass marbles, a level of the anxiety symptom can be evaluated from the number of buried glass marbles.
Example 2 is a behavior test in which the compound 8 was administered to a mouse as well as stress was applied and a suppression effect of the compound 8 on depressive and anxiety symptoms of the mouse was examined. On the other hand, the present example is a behavior test in which only stress was applied for 3 weeks without administering the compound 8 and stress was completed and a therapeutic effect of the compound 8 on depressive and anxiety symptoms of a mouse after removing stress was examined. Stress was applied to a mouse in the same manner as in Example 2. […]

[2] = test system: mice under chronic mild stress; test: Elevated plus maze test after completion of stress
Description: In this test, an anxiety level can be evaluated from the time for being the open arm, and a behavior amount can be evaluated from the number of times of entering the closed arm. From the evaluations, when a mouse has an anxiety symptom (condition), the time for being in the open arm […], and thus, a level of the anxiety symptom (condition) can be evaluated from the length of the time. FIGS. 8 to 11 show the results.
Example 2 is a behavior test in which the compound 8 was administered to a mouse as well as stress was applied and a suppression effect of the compound 8 on depressive and anxiety symptoms of the mouse was examined. On the other hand, the present example is a behavior test in which only stress was applied for 3 weeks without administering the compound 8 and stress was completed and a therapeutic effect of the compound 8 on depressive and anxiety symptoms of a mouse after removing stress was examined. Stress was applied to a mouse in the same manner as in Example 2. For behavior tests of mice, the burying the glass-marbles test, the tail suspension test and the elevated plus maze test were performed respectively in the same manners as in Example 2 on groups without administering the compound 8 immediately after completion of stress for 3 weeks and groups without administering the compound 8 with no stress from the start (hereinafter referred to as “non-administration groups after completion of stress”); a group administered with the compound 8 for 1 week after completion of stress and a group administered with the compound 8 for 1 week in the same manner as the former group with no stress from the start (hereinafter referred to as “1 week-administration groups after completion of stress”); and a group administered with the compound 8 for 2 weeks after completion of stress and a group administered with the compound 8 for 2 weeks in the same manner as the former group with no stress from the start (hereinafter referred to as “2 week-administration groups after completion of stress”). […]

**Q.** How did the “phosphorylated MAP kinase amount compared to control (0 μg/kg)” value (MAP kinase) turn out when `CCCCCCC/C=C/C(=O)OCC` [Compound 8, trans-2-decenoic acid ethyl ester] was run?
**A.** significantly increased

**Q.** And the “number of buried glass marbles, stressed vs non-stressed example” value [1]?
**A.** no significant difference

**Q.** What about the “time for being in open arm, stressed vs non-stressed example” value ([2]; 500 μg/kg, 1 week-administration groups after completion of stress) of the same compound?
**A.** no significant difference

**Q.** And the “number of times of entering closed arm (behavior amount)” value ([2]; 1 week- and 2 week-administration groups after completion of stress, vs controls (0 μg/kg) and stressed vs non-stressed)?
**A.** no significant difference

**Q.** And the “time for being in open arm, stressed vs non-stressed example” value ([2]; all administration examples, 2 week-administration group after completion of stress)?
**A.** no significant difference
